# Where two headings read alike, the source gives them in different places.
# Columns and labels:
# [1] = 28-day repeat-dose oral toxicity study in mice; settings: both sexes, Crl:CD1 (ICR), mouse, in vivo; mice, 28 days
# Text: (§1) Additionally, toxicokinetic animals received the vehicle or compound in the same manner and dose levels as the main study groups.
# Crl:CD1 (ICR) mice = test: 28-day repeat-dose oral toxicity study in mice; settings: mouse, in vivo
# Text: as §1
# [2] = toxicokinetics, 7-day monkey study; format: in vivo; settings: cynomolgus monkey, plasma, oral, monkeys, read-out: Mean Day 7 AUC0-last
# Experimental: (§2) In cynomolgus monkeys, a 7-day repeat dose toxicity study was conducted with doses up to 250 mg/kg/day. […] To aid in dose selection for a subsequent pivotal study, an additional study was conducted to determine the maximum feasible dose under optimal feeding conditions in cynomolgus monkeys. […] Dosing monkeys in the fasted state prior to dosing yielded more consistently higher exposures. Therefore, a dose of 375 mg/kg in 0.5% methyl cellulose (400 cps) and 0.1% Tween 80 administered to fasted monkeys was selected for the 14-day repeat-dose phase of the study, and was considered the maximum feasible dose.
# CYP3A4/5 = test: in vitro assessment of CYP inhibition; format: in vitro ADME, human; settings: in vitro assessments
# Experimental: (§3) In vitro and in vivo studies were conducted to characterize the absorption, PK, distribution, and metabolism of Compound 1. […] Additionally, plasma samples from single dose PK studies in mice and monkeys were evaluated for circulating metabolites.
# [3] = single oral dose pharmacokinetics in Sprague Dawley rats; format: in vivo; settings: rat
# Experimental: as §3
# [4] = single oral dose pharmacokinetics in cynomolgus monkeys; format: in vivo, cynomolgus monkey
# Experimental: as §3
# [5] = single intravenous dose pharmacokinetics in cynomolgus monkeys; format: in vivo; settings: cynomolgus monkey, plasma; for Vd: read-out: Vdss;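 for AUCLST: AUC to the last measurable time point (AUClast)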
# Experimental: as §3
# Monkey/Cynomolgus = test: single dose (fasted/non-fasted) and 14-day repeat-dose study in cynomolgus monkeys; format: in vivo
# Experimental: as §2
# [6] = test system: cytokines and chemokines produced by ankylosing spondylitis patient cells (TNF-α, IL-17A, MCP-1, IL-6); test: ex vivo cytokine and chemokine production by ankylosing spondylitis patient cells; format: cell-based, human; settings: ankylosing spondylitis patient cells in vitro
# [7] = physical form (amorphous/crystalline) in dose formulation vehicle; format: physicochemical
# Text: Additionally, the vehicle used in the pivotal studies was changed from 0.5% methyl cellulose (400 cps) and 0.1% Tween 80 to distilled water.
# [8] = single intravenous dose pharmacokinetics in Sprague Dawley rats; format: in vivo; settings: rat, plasma; for Vd: read-out: Vdss
# Experimental: as §3
# [9] = test system: cynomolgus monkeys (Macaca fascicularis); test: pivotal 28-day repeat-dose toxicity study in monkeys; format: in vivo, cynomolgus monkey
# [10] = as above; format: in vivo, cynomolgus monkey; settings: both sexes, cynomolgus monkey, in vivo; monkeys, 28 days, highest dose used; read-out: NOAEL with respect to dose
# [11] = exposure in 28- and 91-day monkey toxicology studies
# [12] = exposure in 91-day mouse toxicology study; settings: for AUC: mouse, plasma
# [13] = plasma exposure in HLA-B27/Huβ2m rats; settings: HLA B27 Tg rat, 20 mg/kg
# Text: In each disease model, steady-state pharmacokinetics were characterized.
# [14] = Sprague Dawley, plasma, female, single oral 30 mg/kg
# [15] = Sprague Dawley, plasma, male, single oral 30 mg/kg
# [16] = cynomolgus monkey, plasma, monkey, female, single oral 50 mg/kg
# [17] = cynomolgus monkey, plasma, monkey, female, single oral 150 mg/kg
# [18] = cynomolgus monkey, plasma, monkey, female, single oral 375 mg/kg
# [19] = cynomolgus monkey, plasma, monkey, male, single oral 50 mg/kg
# [20] = cynomolgus monkey, plasma, monkey, male, single oral 150 mg/kg
# [21] = cynomolgus monkey, plasma, monkey, male, single oral 375 mg/kg
# [22] = cynomolgus, monkey, female, single IV 5 mg/kg
# [23] = cynomolgus, monkey, male, single IV 5 mg/kg
# [24] = cynomolgus monkey, in vivo, 150 mg/kg/day
smiles,measurement,setting,value
CCOCc1cnc(Cl)nc1Oc1ccc2c(ccc3sc4c(c32)NC[C@@H](C)NC4=O)n1 [Compound 1],NOAEL at 28 days,[1],100 mg/kg/day
same,compound-related findings,Crl:CD1 (ICR) mice; 15 mg/kg/day,no compound-related findings
same,"microscopic finding, skeletal muscle",Crl:CD1 (ICR) mice; 100 mg/kg/day,Minimal to mild myofiber degeneration in the skeletal muscle
same,"adverse effect, heart",Crl:CD1 (ICR) mice; 750 mg/kg/day,Minimal to mild myofiber degeneration in the heart
same,change in mean absolute reticulocyte count,Crl:CD1 (ICR) mice; 750 mg/kg/day,−29%
same,change in mean platelet count,Crl:CD1 (ICR) mice; 750 mg/kg/day,+96%
same,leukocyte counts (non-adverse),Crl:CD1 (ICR) mice; 750 mg/kg/day,Minimal to mild decreases in lymphocyte counts and inconsistent decreases in most other leukocyte subtypes
same,"microscopic finding, duodenum",Crl:CD1 (ICR) mice; 750 mg/kg/day,Minimal to mild erosion/ulceration of the proximal duodenum
same,"microscopic finding, liver",Crl:CD1 (ICR) mice; 750 mg/kg/day,Centrilobular hepatocellular hypertrophy (typically of minimal severity)
same,"microscopic finding, thymus",Crl:CD1 (ICR) mice; 750 mg/kg/day,Minimal to mild thymic cortical lymphoid depletion
same,organ weights (non-adverse),Crl:CD1 (ICR) mice; 750 mg/kg/day,Increased liver and heart weights
same,AUC(0-t),[2]; 25 mg/kg/day,1090 ng·h/mL
same,AUC(0-t),[2]; 75 mg/kg/day,1170 ng·h/mL
same,AUC(0-t),[2]; 250 mg/kg/day,9440 ng·h/mL
same,inhibition of intestinal CYP3A4/5,CYP3A4/5,potential for direct and time-dependent inhibition
same,AUC,[3]; [14],5940 ng·h/mL
same,AUC(0-inf),[3]; [14],6610 ng·h/mL
same,Cmax,[3]; [14],4960 ng/mL
same,Tmax,"[3]; Sprague Dawley, plasma, female, single oral 30 mg/kg, median, read-out: tmax",0.5 h
same,AUC,[3]; [15],1190 ng·h/mL
same,AUC(0-inf),[3]; [15],1290 ng·h/mL
same,Cmax,[3]; [15],1180 ng/mL
same,Tmax,"[3]; Sprague Dawley, plasma, male, single oral 30 mg/kg, median, read-out: tmax",0.25 h
same,Tmax,"[3]; both sexes, Sprague Dawley, plasma, 30 mg/kg, rats, oral dosing, read-out: time to maximum plasma concentration (tmax)",0.25 to 1 h
same,bioavailability,"[3]; both sexes, Sprague Dawley, plasma, po, rats, doses in the range 15 to 375 mg/kg",8 to 28%
same,F,"[3]; female, single oral 30 mg/kg",28%
same,F,"[3]; male, single oral 30 mg/kg",11%
same,bioavailability,"[4]; both sexes, cynomolgus monkey, plasma, po, monkeys, doses in the range 15 to 375 mg/kg",8 to 28%
same,Tmax,"[4]; both sexes, cynomolgus monkey, plasma, monkeys, oral dosing, read-out: time to maximum plasma concentration (tmax)",1 to 6 h
same,AUC,[4]; [16],3810 ng·h/mL
same,AUC(0-inf),[4]; [16],3840 ng·h/mL
same,Cmax,[4]; [16],1040 ng/mL
same,Tmax,"[4]; cynomolgus monkey, plasma, monkey, female, single oral 50 mg/kg, median, read-out: tmax",2 h
same,AUC,[4]; [17],4750 ng·h/mL
same,AUC(0-inf),[4]; [17],4820 ng·h/mL
same,Cmax,[4]; [17],1200 ng/mL
same,Tmax,"[4]; cynomolgus monkey, plasma, monkey, female, single oral 150 mg/kg, median, read-out: tmax",2 h
same,AUC,[4]; [18],22600 ng·h/mL
same,AUC(0-inf),[4]; [18],22700 ng·h/mL
same,Cmax,[4]; [18],2530 ng/mL
same,Tmax,"[4]; cynomolgus monkey, plasma, monkey, female, single oral 375 mg/kg, median, read-out: tmax",6 h
same,AUC,[4]; [19],3680 ng·h/mL
same,AUC(0-inf),[4]; [19],3710 ng·h/mL
same,Cmax,[4]; [19],865 ng/mL
same,Tmax,"[4]; cynomolgus monkey, plasma, monkey, male, single oral 50 mg/kg, median, read-out: tmax",2 h
same,AUC,[4]; [20],8480 ng·h/mL
same,AUC(0-inf),[4]; [20],8590 ng·h/mL
same,Cmax,[4]; [20],1990 ng/mL
same,Tmax,"[4]; cynomolgus monkey, plasma, monkey, male, single oral 150 mg/kg, median, read-out: tmax",1 h
same,AUC,[4]; [21],13900 ng·h/mL
same,AUC(0-inf),[4]; [21],14000 ng·h/mL
same,Cmax,[4]; [21],1890 ng/mL
same,F,"[4]; monkey, female, single oral 50 mg/kg",19%
same,F,"[4]; monkey, female, single oral 150 mg/kg",8%
same,F,"[4]; monkey, female, single oral 375 mg/kg",15%
same,F,"[4]; monkey, male, single oral 50 mg/kg",18%
same,F,"[4]; monkey, male, single oral 150 mg/kg",14%
same,F,"[4]; monkey, male, single oral 375 mg/kg",9%
same,half-life,"[5]; both sexes, iv, 5 mg/kg, monkeys, read-out: terminal half-life",≤ 1 h
same,AUC,[5]; [22],2200 ng·h/mL
same,AUC(0-inf),[5]; [22],2210 ng·h/mL
same,clearance,[5]; [22],38.3 mL/min/kg
same,Vd,[5]; [22],1.93 L/kg
same,half-life,"[5]; cynomolgus, monkey, female, single IV 5 mg/kg, read-out: t1/2,z (converted)",0.98 h
same,AUC,[5]; [23],1920 ng·h/mL
same,AUC(0-inf),[5]; [23],1920 ng·h/mL
same,clearance,[5]; [23],43.5 mL/min/kg
same,Vd,[5]; [23],1.81 L/kg
same,half-life,"[5]; cynomolgus, monkey, male, single IV 5 mg/kg, read-out: t1/2,z (converted)",0.95 h
same,"Findings, single dose phase","Monkey/Cynomolgus; 375 and 500 mg/kg, fasted and non-fasted",No compound-related findings
same,"Findings, 14-day phase","Monkey/Cynomolgus; fasted, 375 mg/kg/day",No compound-related findings
same,"production of cytokines and chemokines incl. TNF-α, IL-17A, MCP-1, IL-6",[6],significantly inhibited
same,physical form after dose formulation preparation,[7]; Tween 80 present in the vehicle,"changed from an amorphous to a crystalline form, beginning within the first hour"
same,time remaining in the amorphous form,[7]; prepared in distilled water,at least 24 hours
same,half-life,"[8]; both sexes, iv, 5 mg/kg, rats, read-out: terminal half-life",≤ 1 h
same,AUC,"[8]; female, single IV 5 mg/kg",3950 ng·h/mL
same,AUC(0-inf),"[8]; female, single IV 5 mg/kg",3960 ng·h/mL
same,clearance,"[8]; female, single IV 5 mg/kg",21.5 mL/min/kg
same,Vd,"[8]; female, single IV 5 mg/kg",0.561 L/kg
same,half-life,"[8]; female, single IV 5 mg/kg, read-out: t1/2,z (converted)",1.1 h
same,AUC,"[8]; male, single IV 5 mg/kg",2020 ng·h/mL
same,AUC(0-inf),"[8]; male, single IV 5 mg/kg",2020 ng·h/mL
same,clearance,"[8]; male, single IV 5 mg/kg",42.2 mL/min/kg
same,Vd,"[8]; male, single IV 5 mg/kg",0.648 L/kg
same,half-life,"[8]; male, single IV 5 mg/kg, read-out: t1/2,z (converted)",0.23 h
same,"clinical observation, stool (non-adverse)","[9]; cynomolgus monkey, in vivo, 50 mg/kg/day",discolored and/or watery stool
same,"clinical observation, urine (non-adverse)",[9]; [24],dose-dependent incidents of discolored urine
same,"microscopic finding, skeletal muscle (non-adverse)",[9]; [24],Minimal myofiber degeneration in skeletal muscle
same,"mortality, body weight, ophthalmic examinations, electrocardiograms, clinical pathology, macroscopic observations, organ weights","[9]; monkeys, 50, 150, 375 mg/kg/day, 28 days",no compound-related effects
same,NOAEL at 28 days,[10],375 mg/kg/day
same,AUC,"[11]; cynomolgus monkey, plasma, oral, 375 mg/kg/day",9120 ng·h/mL
same,margin of monkey exposure over human 150-mg dose,[11]; monkey NOAEL AUCLST vs human 150 mg,6.7 fold
same,margin of human 150 mg exposure below the mouse NOAEL,[12]; mouse NOAEL AUCLST vs human 150 mg AUCLST,21 fold
same,AUC,[12]; 100 mg/kg/day,28800 ng·h/mL
same,AUC,[12]; 750 mg/kg/day,144000 ng·h/mL
same,AUC,[13],2820 ng·h/mL
